Test system: carageenan-induced edema
Assay: Carrageenan-induced rat paw edema test (anti-inflammatory activity)
Format: in vivo, Sprague-Dawley rats
Set-up: % Protection: concentration or dose not given beside the values
Settings: Rattus norvegicus, po, 3 h, carrageenan-induced rat paw edema; defined in Example 397; read-out: % Protection
Protocol: Sprague-Dawley rats, male and female, 150-250 g will be used in an edema test. Rats will be deprived of food but not water for 18 hours prior to the experiment. The test compounds will be administered with a blunt-tipped needle orally, 50 mg/kg, as a suspension in 0.1% sodium CMC (carboxymethylcellulose) vehicle. Alternatively, the test compounds will be injected intravenously, subcutaneously, or intraperitoneally. One hour later, 0.1 ml of a 1% carrageenan solution in saline will be injected in the sub-plantar region of the right hind paw of each rat. […] The reading will be repeated 3 hours later. The displacement readings give a measure of carageenan-induced edema. Any reduction in carageenan-induced edema with a test compound, as compared to saline control, is a measure of the anti-inflammatory activity of the test compound. The percentage protection at 50-mg/kg doses was calculated according to the following formula: % Protection=[(Control−Test)/Control]×100%.
Following treatment, the media from the VSMC and HUVEC incubations were removed, and the amount of lactate dehydrogenase (LDH) released into the medium was determined with a commercial kit and expressed as a % increase over vehicle-treated cells. HPT toxicity was determined by the ethidium homodimer (EthHD) uptake assay. […] The lead compounds were also tested in two pairs of cell lines from the skin or prostate, one tumorigenic and one non-tumorigenic, to test for differing toxicity or heightened sensitivity in the tumorigenic lines. The cells were treated for 48 h with vehicle (0.1% DMSO) or 10 μM of each drug candidate, and the viability of the cells was determined by the MTT assay, expressed as a % decrease in viability compared to vehicle-treated cells. The in vivo inflammation model measured the % inhibition of rat paw edema induced by carageenan injection.

In order of falling inhibition in vivo at 50 mg/kg:
1. Cc1ccc(Nc2nc(C)c(-c3nc4ccccc4c(=O)n3-c3ccc(Cl)cc3)s2)cc1 [Example 247, 2-[2-(4-Methylphenylamino)-4-methyl-thiazol-5-yl]-3-(4-chloro-phenyl)-3H-quinazolin-4-one]  71.9%
2. CCOC(=O)Nc1nc(C)c(-c2nc3ccccc3c(=O)n2-c2ccc(C(C)=O)cc2)s1 [Example 259, (4-Methyl-5-(4-oxo-3-(4-acetyl-phenyl)-3,4-dihydro-quinazolin-2-yl)-thiazol-2-yl)-carbamic acid ethyl ester]  69.7%
3. Cc1ccccc1-n1c(-c2sc(Nc3ccc(Cl)cc3)nc2-c2ccccc2)nc2ccccc2c1=O [Example 178, 2-[2-(4-Chloro-phenylamino)-4-phenyl-thiazol-5-yl]-3-o-tolyl-3H-quinazolin-4-one]  51%
4. Cc1ccccc1-n1c(-c2sc(Nc3ccc(Cl)cc3)nc2C)nc2ccccc2c1=O [Example 170, 2-[2-(4-Chlorophenylamino)-4-methyl-thiazol-5-yl]-3-o-tolyl-3H-quinazolin-4-one]  45%
5. COc1ccccc1-n1c(-c2sc(Nc3ccc(Cl)cc3)nc2-c2ccccc2)nc2ccccc2c1=O [Example 208, 2-[2-(4-Chloro-phenylamino)-4-phenyl-thiazol-5-yl]-3-(2-methoxyphenyl)-3H-quinazolin-4-one]  31%
6. COc1ccccc1-n1c(-c2sc(Nc3ccc(Cl)cc3)nc2C)nc2ccccc2c1=O [Example 203, 2-[2-(4-Chlorophenylamino)-4-methyl-thiazol-5-yl]-3-(2-methoxyphenyl)-3H-quinazoline-4-one]  27%
7. CCOC(=O)Nc1nc(C)c(-c2nc3ccccc3c(=O)n2-c2ccc(C)cc2)s1 [Example 190, (4-Methyl-5-(4-oxo-3-p-tolyl-3,4-dihydro-quinazolin-2-yl)-thiazol-2-yl)-carbamic acid ethyl ester]  24%

Same assay, conditions: Rattus norvegicus, po, 3 h, rat paw edema, 50 mg/kg, reading 3 hours after carrageenan; [(Control−Test)/Control]×100%; read-out: % Protection P

In order of falling inhibition in vivo at 50 mg/kg:
1. CCOC(=O)Nc1nc(-c2ccccc2)c(C(=O)c2sc(NC(=O)OCC)nc2-c2ccccc2)s1 [Example 131, Diethyl[carbonyl-bis(4-phenyl-1,3-thiazole-5,2-diyl)]biscarbamate]  69.8%
2. O=C(c1ccncc1)c1cc(-c2ccncc2)c(N2CCOCC2)s1 [Example 111, (5-Morpholin-4-yl-4-pyridin-4-yl-thiophen-2-yl)-pyridin-4-yl-methanone]  59.1%
3. O=C(c1cc(-c2ccc(Cl)cc2)c(N2CCOCC2)s1)c1cc(-c2ccc(Cl)cc2)c(N2CCOCC2)s1 [Example 114, Bis-[4-(4-chloro-phenyl)-5-morpholin-4-yl-thiophen-2-yl]-methanone]  56.6%
4. CS(=O)(=O)c1ccc(-c2cc(C(=O)c3cc(-c4ccc(S(C)(=O)=O)cc4)c(N4CCOCC4)s3)sc2N2CCOCC2)cc1 [Example 112, Bis-[4-(4-methansulfonyl-phenyl)-5-morpholin-4-yl-thiophen-2-yl]-methanone]  55.6%
5. O=C(Nc1nc(-c2ccccc2)c(C(=O)c2sc(NC(=O)c3ccco3)nc2-c2ccccc2)s1)c1ccco1 [Example 129, Bis-[2-(2-Furoyl-amino)-4-phenyl-thiazole-5-yl]-methanone]  55%
6. O=C(c1ccccc1)c1cc(-c2ccncc2)c(N2CCOCC2)s1 [Example 102, (5-Morpholin-4-yl-4-pyridin-4-yl-thiophene-2-yl)-phenyl-methanone]  52%
7. Cc1cccc(-n2c(-c3cc(-c4ccc(S(C)(=O)=O)cc4)c(N4CCOCC4)s3)nc3ccccc3c2=O)c1 [Example 287, 2-[4-(4-Methanesulfonyl-phenyl)-5-morpholin-4-yl-thiophen-2-yl]-3-m-tolyl-3H-quinazolin-4-one]  51%
8. Cc1ccccc1-n1c(-c2cc(-c3ccc(S(C)(=O)=O)cc3)c(N3CCOCC3)s2)nc2ccccc2c1=O [Example 281, 2-[4-(4-Methanesulfonylphenyl)-5-morpholin-4-yl-thiophen-2-yl]-3-o-tolyl-3H-quinazolin-4-one]  50%
9. O=C(c1ccc(Cl)cc1)c1cc(-c2ccncc2)c(N2CCOCC2)s1 [Example 105, (4-Chloro-phenyl)-(5-morpholin-4-yl-4-pyridin-4-yl-thiophen-2-yl)-methanone]  47.2%
10. CC(=O)Nc1ccc(-c2cc(C(=O)c3cc(-c4ccc(NC(C)=O)cc4)c(N4CCOCC4)s3)sc2N2CCOCC2)cc1 [Example 113, N-{4-{5-[4-(4-acetylamino-phenyl)-5-morpholin-4-yl-thiophene-2-carbonyl]-2-morpholin-4-yl-thiophene-3-yl}-phenyl)-acetamide]  45.5%
11. COc1ccc(C(=O)c2cc(-c3ccncc3)c(N3CCOCC3)s2)cc1 [Example 104, (4-Methoxy-phenyl)-(5-morpholin-4-yl-4-pyridin-4-yl-thiophen-2-yl)-methanone]  43.5%
12. O=C(c1sc(Nc2ccc(Cl)cc2)nc1-c1ccccc1)c1sc(Nc2ccc(Cl)cc2)nc1-c1ccccc1 [Example 127, Bis-[2-(4-Chloro-phenylamino)-4-phenyl-thiazole-5-yl]-methanone]  43.5%
13. COC(=O)Nc1nc(C)c(C(=O)c2sc(NC(=O)OC)nc2C)s1 [Example 123, Dimethyl[carbonyl-bis(4-methyl-1,3-thiazole-5,2-diyl)]biscarbamate]  23.9%
14. Cc1ccccc1-n1c(-c2cc(-c3ccc(Cl)cc3)c(N3CCOCC3)s2)nc2ccccc2c1=O [Example 279, 2-[4-(4-Chloro-phenyl)-5-morpholin-4-yl-thiophen-2-yl]-3-o-tolyl-3H-quinazolin-4-one]  0%
15. O=C(c1cccnc1)c1cc(-c2ccncc2)c(N2CCOCC2)s1 [Example 110, (5-Morpholin-4-yl-4-pyridin-4-yl-thiophen-2-yl)-pyridin-3-yl-methanone]  -6.93%
16. O=C(c1cc(-c2ccncc2)c(N2CCOCC2)s1)c1ccc(Cl)cc1Cl [Example 106, (2,4-Dichloro-phenyl)-(5-morpholin-4-yl-4-pyridin-4-yl-thiophen-2-yl)-methanone]  -75.2%
17. CC(=O)Nc1ccc(C(=O)c2cc(-c3ccncc3)c(N3CCOCC3)s2)cc1 [Example 109, N-[4-(5-Morpholin-4-yl-4-pyridin-4-yl-thiophen-2-carbonyl)-phenyl]-acetamide]  -75.2%

Same assay, conditions: carrageenan-induced rat paw edema; defined in Example 397

`O=c1c2ccccc2nc(-c2sc(Nc3ccc(Cl)cc3)nc2-c2ccccc2)n1-c1ccccc1Cl` [Example 238, 2-[2-(4-Chlorophenylamino)-4-phenyl-thiazol-5-yl]-3-(2-Chloro-phenyl)1-3H-quinazolin-4-one] was tested, and the “% Protection” value was 61%.

Same assay, conditions: rat paw edema, 50 mg/kg, reading 3 hours after carrageenan; [(Control−Test)/Control]×100%

For `Cc1ccccc1-n1c(-c2cc(-c3ccccc3)c(N3CCOCC3)s2)nc2ccccc2c1=O` [Example 278, 2-(5-Morpholin-4-yl-4-phenyl-thiophene-2-yl)-3-0-tolyl-3H-quinazolin-4-one], the “% Protection P” value was 37%.

Same assay, conditions: rat paw edema, 50 mg/kg, reading 3 hours after carrageenan; [(Control−Test)/Control]×100%; 50 mg/kg

In order of rising “% Protection P” value:
1. Cc1nc(NC(=O)c2ccccc2)sc1C(=O)c1sc(NC(=O)c2ccccc2)nc1C [Example 128, Bis-[2-(2-Benzoyl-amino)-4-methyl-thiazole-5-yl]-methanone]  34%
2. Cc1nc(NC(=O)c2ccccc2)sc1C(=O)c1sc(NC(=O)c2ccccc2)nc1C [Example 121, Bis-[2-(2-Benzoyl-amino)-4-methyl-thiazole-5-yl]-methanone]  62%

Reference: patent publication US8829014B2, “Thiazole and thiophene analogues, and their use in treating autoimmune diseases and cancers” (Board of Supervisors of Louisiana State University and …, priority 2006, dated 2014)
